How the values were obtained:
Format in all cases: in vivo
[1] = test system: pigweed (Amaranthus retroflexus); assay: Test A postemergence; conditions: Amaranthus retroflexus, post-emergence, 240 h, 125 g ai/ha, Postemergence; visual injury after approximately 10 d; 0 to 100 scale where 0 is no effect and 100 is complete control; read-out: Plant response rating, Pigweed
How it was run: (§1)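 Preemergence soil spray on seeded pots or post-emergence spray on 1–2 leaf plants, in loam–sand blend. Greenhouse ~10 d. Visual rating 0–100 against untreated plants.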

[2] = test system: barnyardgrass (Echinochloa crus-galli); assay: Test A postemergence; conditions: Echinochloa crus-galli, post-emergence, 240 h, 125 g ai/ha, Postemergence; visual injury after approximately 10 d; 0 to 100 scale where 0 is no effect and 100 is complete control; read-out: Plant response rating, Barnyardgrass
How it was run: as §1

[3] = test system: ryegrass, Italian (Italian ryegrass, Lolium multiflorum); assay: Test A postemergence; conditions: Lolium multiflorum, post-emergence, 240 h, 125 g ai/ha, Postemergence; visual injury after approximately 10 d; 0 to 100 scale where 0 is no effect and 100 is complete control; read-out: Plant response rating, Ryegrass, Italian
How it was run: as §1

[4] = test system: giant foxtail (Setaria faberii); assay: Test A postemergence; conditions: Setaria faberi, post-emergence, 240 h, 125 g ai/ha, Postemergence; visual injury after approximately 10 d; 0 to 100 scale where 0 is no effect and 100 is complete control; read-out: Plant response rating, Foxtail, Giant
How it was run: as §1

[5] = test system: blackgrass (Alopecurus myosuroides); assay: Test A postemergence; conditions: Alopecurus myosuroides, post-emergence, 240 h, 125 g ai/ha, Postemergence; visual injury after approximately 10 d; 0 to 100 scale where 0 is no effect and 100 is complete control; read-out: Plant response rating, Blackgrass
How it was run: as §1

Kochia (Kochia scoparia) [6] = assay: Test A postemergence; conditions: Bassia scoparia, post-emergence, 240 h, 125 g ai/ha, Postemergence; visual injury after approximately 10 d; 0 to 100 scale where 0 is no effect and 100 is complete control; read-out: Plant response rating, Kochia
How it was run: as §1

corn (Zea mays) = assay: Test A postemergence; conditions: Zea mays, post-emergence, 240 h, 125 g ai/ha, Postemergence; visual injury after approximately 10 d; 0 to 100 scale where 0 is no effect and 100 is complete control
How it was run: as §1

[7] = test system: Galium (catchweed bedstraw, Galium aparine); assay: Test A postemergence; conditions: Galium, post-emergence, 240 h, 125 g ai/ha, Postemergence; visual injury after approximately 10 d; 0 to 100 scale where 0 is no effect and 100 is complete control; read-out: Plant response rating, Galium
How it was run: as §1

[8] = test system: ragweed (common ragweed, Ambrosia elatior); assay: Test A postemergence; conditions: Ambrosia artemisiifolia, post-emergence, 240 h, 125 g ai/ha, Postemergence; visual injury after approximately 10 d; 0 to 100 scale where 0 is no effect and 100 is complete control; read-out: Plant response rating, Ragweed
How it was run: as §1

[9] = test system: wheat (Triticum aestivum); assay: Test A postemergence; conditions: Triticum aestivum, post-emergence, 240 h, 125 g ai/ha, Postemergence; visual injury after approximately 10 d; 0 to 100 scale where 0 is no effect and 100 is complete control; read-out: Plant response rating, Wheat
How it was run: as §1

[10] = test system: pigweed (Amaranthus retroflexus); assay: Test A preemergence; conditions: Amaranthus retroflexus, pre-emergence, 240 h
[11] = test system: barnyardgrass (Echinochloa crus-galli); assay: Test A preemergence; conditions: Echinochloa crus-galli, pre-emergence, 240 h
How it was run: as §1

[12] = test system: ryegrass, Italian (Italian ryegrass, Lolium multiflorum); assay: Test A preemergence; conditions: Lolium multiflorum, pre-emergence, 240 h
How it was run: as §1

[13] = test system: giant foxtail (Setaria faberii); assay: Test A preemergence; conditions: Setaria faberi, pre-emergence, 240 h
How it was run: as §1

Kochia (Kochia scoparia) [14] = assay: Test A preemergence; conditions: Bassia scoparia, pre-emergence, 240 h
How it was run: as §1

[15] = test system: ragweed (common ragweed, Ambrosia elatior); assay: Test A preemergence; conditions: Ambrosia artemisiifolia, pre-emergence, 240 h
How it was run: as §1

[16] = test system: barnyardgrass (Echinochloa crus-galli); assay: Test B flooded paddy test; conditions: Echinochloa crus-galli, Flood, 250 g ai/ha; scale of 0 to 100 where 0 is no effect and 100 is complete control; read-out: Barnyardgrass plant response rating
How it was run: (§2)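 Rating scale 0–100 (visual, vs untreated controls) after a 13–15 d greenhouse period; application to the flood layer, 3 cm above soil and maintained; plants at 2-leaf stage when treated.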

[17] = test system: ducksalad (Heteranthera limosa); assay: Test B flooded paddy test; conditions: Heteranthera limosa, Flood, 250 g ai/ha; scale of 0 to 100 where 0 is no effect and 100 is complete control; read-out: Ducksalad plant response rating
How it was run: as §2

[18] = test system: sedge, umbrella (small-flower umbrella sedge, Cyperus difformis); assay: Test B flooded paddy test; conditions: Cyperus difformis, Flood, 250 g ai/ha; scale of 0 to 100 where 0 is no effect and 100 is complete control; read-out: Sedge, Umbrella plant response rating
How it was run: as §2

rice (Oryra sativa) = assay: Test B flooded paddy test; conditions: Oryza sativa, Flood, 250 g ai/ha; scale of 0 to 100 where 0 is no effect and 100 is complete control; read-out: Rice plant response rating
How it was run: as §2

CCOc1cccc([C@H]2CN(C)C(=O)[C@@H]2C(=O)Nc2ccc(F)cc2F)c1 [Compound 963]
pest or weed control at 125 g/ha [1]: 0%
pest or weed control at 125 g/ha [2]: 90%
pest or weed control at 125 g/ha [3]: 20%
pest or weed control at 125 g/ha [4]: 90%
pest or weed control at 125 g/ha [5]: 0%
pest or weed control at 125 g/ha (Kochia (Kochia scoparia) [6]): 20%
Corn plant response rating (crop injury, 0 = no effect, 100 = complete kill) at 125 g/ha (corn (Zea mays)): 0%
pest or weed control at 125 g/ha [7]: 30%
pest or weed control at 125 g/ha [8]: 0%
plant injury at 125 g/ha [9]: 0%
pest or weed control at 125 g/ha ([10]; 125 g ai/ha, Preemergence, visual injury rating after approximately 10 d, read-out: Pigweed plant response rating (0 to 100 scale, 0 is no effect, 100 is complete control)): 0%
pest or weed control at 500 g/ha ([10]; 500 g ai/ha, preemergence, visual injury rating about 10 d after treatment, 0 to 100 scale (0 no effect, 100 complete control), read-out: Pigweed plant response rating): 30%
pest or weed control at 125 g/ha ([11]; 125 g ai/ha, Preemergence, visual injury rating after approximately 10 d, read-out: Barnyardgrass plant response rating (0 to 100 scale, 0 is no effect, 100 is complete control)): 90%
pest or weed control at 500 g/ha ([11]; 500 g ai/ha, preemergence, visual injury rating about 10 d after treatment, 0 to 100 scale (0 no effect, 100 complete control), read-out: Barnyardgrass plant response rating): 100%
pest or weed control at 125 g/ha ([12]; 125 g ai/ha, Preemergence, visual injury rating after approximately 10 d, read-out: Ryegrass, Italian plant response rating (0 to 100 scale, 0 is no effect, 100 is complete control)): 20%
pest or weed control at 500 g/ha ([12]; 500 g ai/ha, preemergence, visual injury rating about 10 d after treatment, 0 to 100 scale (0 no effect, 100 complete control), read-out: Ryegrass, Italian plant response rating): 40%
pest or weed control at 125 g/ha ([13]; 125 g ai/ha, Preemergence, visual injury rating after approximately 10 d, read-out: Foxtail, Giant plant response rating (0 to 100 scale, 0 is no effect, 100 is complete control)): 100%
pest or weed control at 500 g/ha ([13]; 500 g ai/ha, preemergence, visual injury rating about 10 d after treatment, 0 to 100 scale (0 no effect, 100 complete control), read-out: Foxtail, Giant plant response rating): 100%
pest or weed control at 125 g/ha (Kochia (Kochia scoparia) [14]; 125 g ai/ha, Preemergence, visual injury rating after approximately 10 d, read-out: Kochia plant response rating (0 to 100 scale, 0 is no effect, 100 is complete control)): 40%
pest or weed control at 500 g/ha (Kochia (Kochia scoparia) [14]; 500 g ai/ha, preemergence, visual injury rating about 10 d after treatment, 0 to 100 scale (0 no effect, 100 complete control), read-out: Kochia plant response rating): 70%
pest or weed control at 125 g/ha ([15]; 125 g ai/ha, Preemergence, visual injury rating after approximately 10 d, read-out: Ragweed plant response rating (0 to 100 scale, 0 is no effect, 100 is complete control)): 0%
pest or weed control at 500 g/ha ([15]; 500 g ai/ha, preemergence, visual injury rating about 10 d after treatment, 0 to 100 scale (0 no effect, 100 complete control), read-out: Ragweed plant response rating): 0%
pest or weed control at 250 g/ha [16]: 65%
pest or weed control at 250 g/ha [17]: 90%
pest or weed control at 250 g/ha [18]: 0%
pest or weed control at 250 g/ha (rice (Oryra sativa)): 0%

From US12077503B2, “Substituted cyclic amides and their use as herbicides” (FMC CORPORATION, priority 2015, dated 2024)
